In US8952024B2, “Herbicidal pyrimidone derivatives” (E I du Pont de Nemours and Company, priority 2009, dated 2015):
Where two headings read alike, the source gives them in different places.

Tests used:
Experiment in all cases: Test B pre-/postemergence plant response
Format in all cases: in vivo
[1] = test system: ragweed (common ragweed, Ambrosia elatior); settings: for pest or weed control at 125 g/ha: 125 g ai/ha
In short: (§1)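 Visual injury, 0–100 scale (100 = complete control), rated against controls after 13 to 15 days in greenhouse. Pre-emergence: seeds in loam/sand soil, treated at planting. Post-emergence: 1- to 4-leaf plants (2 to 18 cm) in peat/vermiculite medium. Compounds formulated in non-phytotoxic solvent with surfactant.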

[2] = test system: wheat (Triticum aestivum); settings: for plant injury at 31 g/ha: 31 g ai/ha; for plant injury at 125 g/ha: 125 g ai/ha
In short: as §1

[3] = test system: Italian ryegrass (Lolium multiflorum); settings: for pest or weed control at 31 g/ha: 31 g ai/ha; for pest or weed control at 125 g/ha: 125 g ai/ha
In short: as §1

[4] = test system: lambsquarters (Chenopodium album); settings: for pest or weed control at 31 g/ha: 31 g ai/ha; for pest or weed control at 125 g/ha: 125 g ai/ha
In short: as §1

[5] = test system: johnsongrass (Sorghum halepense); settings: for pest or weed control at 31 g/ha: 31 g ai/ha; for pest or weed control at 125 g/ha: 125 g ai/ha
In short: as §1

[6] = test system: yellow nutsedge (Cyperus esculentus); settings: for pest or weed control at 31 g/ha: 31 g ai/ha; for pest or weed control at 125 g/ha: 125 g ai/ha
In short: as §1

[7] = test system: Surinam grass (Brachiaria decumbens); settings: for pest or weed control at 31 g/ha: 31 g ai/ha; for pest or weed control at 125 g/ha: 125 g ai/ha
In short: as §1

[8] = test system: velvetleaf (Abutilon theophrasti); settings: for pest or weed control at 31 g/ha: 31 g ai/ha; for pest or weed control at 125 g/ha: 125 g ai/ha
In short: as §1

corn (Zea mays) = settings: for Corn plant response rating (crop injury, 0 = no effect, 100 = complete kill) at 31 g/ha: 31 g ai/ha; for Corn plant response rating (crop injury, 0 = no effect, 100 = complete kill) at 125 g/ha: 125 g ai/ha
In short: as §1

[9] = Preemergence, 250 g ai/ha, 0 to 100 scale
[10] = 62 g ai/ha, postemergence, 0 is no effect, 100 is complete control, 13 to 15 days

## COCCCn1c(-c2ccccc2)ncc(C(=O)C2=C(O)CCCC2=O)c1=O [Compound 81, 5-[(2-hydroxy-6-oxo-cyclohexen-1-yl)carbonyl]-3-(3-methoxypropyl)-2-phenyl-4(3H)-pyrimidinone]
[1]; Ambrosia artemisiifolia, post-emergence, 360 h, Postemergence, visual rating after 13 to 15 days, scale 0 (no effect) to 100 (complete control)
  pest or weed control at 125 g/ha: 98%
[1]; Ambrosia artemisiifolia, post-emergence, 360 h, Postemergence, 250 g ai/ha, scale 0 to 100 (0 no effect, 100 complete control), read-out: Plant response rating, Ragweed
  pest or weed control at 250 g/ha: 100%
[1]; Ambrosia artemisiifolia, pre-emergence, 360 h, Preemergence, 31 g ai/ha, scale 0 to 100 (0 no effect, 100 complete control), read-out: Plant response rating, Ragweed
  pest or weed control at 31 g/ha: 60%
[1]; Ambrosia artemisiifolia, pre-emergence, 360 h, Preemergence, 62 g ai/ha, scale 0 to 100 (0 no effect, 100 complete control), read-out: Plant response rating, Ragweed
  pest or weed control at 62 g/ha: 85%
[1]; Ambrosia artemisiifolia, pre-emergence, 360 h, Preemergence, scale 0 to 100, 0 no effect, 100 complete control, read-out: Plant response rating, Ragweed
  pest or weed control at 125 g/ha: 90%
[1]; [9]
  Ragweed plant response rating: 90
[2]; [10]
  Wheat plant response rating (0 to 100 scale): 20
[2]; [9]
  Wheat plant response rating: 0
[2]; Triticum aestivum, post-emergence, postemergence, scale 0 to 100, 0 is no effect, 100 is complete control, read-out: Plant response rating, Wheat
  plant injury at 31 g/ha: 5%
[2]; Triticum aestivum, post-emergence, Postemergence, visual rating after 13 to 15 days, scale 0 (no effect) to 100 (complete control)
  plant injury at 125 g/ha: 25%
[2]; Triticum aestivum, post-emergence, Postemergence, 250 g ai/ha, scale 0 to 100 (0 no effect, 100 complete control), read-out: Plant response rating, Wheat
  plant injury at 250 g/ha: 25%
[2]; Triticum aestivum, pre-emergence, Preemergence, scale 0 to 100 (0 no effect, 100 complete control), read-out: Plant response rating, Wheat
  plant injury at 31 g/ha: 0%
[2]; Triticum aestivum, pre-emergence, Preemergence, 62 g ai/ha, scale 0 to 100 (0 no effect, 100 complete control), read-out: Plant response rating, Wheat
  plant injury at 62 g/ha: 0%
[2]; Triticum aestivum, pre-emergence, Preemergence, scale 0 to 100, 0 no effect, 100 complete control, read-out: Plant response rating, Wheat
  plant injury at 125 g/ha: 0%
[3]; [10]
  Ryegrass, Italian plant response rating (0 to 100 scale): 5
[3]; Lolium multiflorum, post-emergence, postemergence, scale 0 to 100, 0 is no effect, 100 is complete control, read-out: Plant response rating, Ryegrass, Italian
  pest or weed control at 31 g/ha: 0%
[3]; Lolium multiflorum, post-emergence, Postemergence, visual rating after 13 to 15 days, scale 0 (no effect) to 100 (complete control)
  pest or weed control at 125 g/ha: 45%
[3]; Lolium multiflorum, post-emergence, Postemergence, 250 g ai/ha, scale 0 to 100 (0 no effect, 100 complete control), read-out: Plant response rating, Ryegrass, Italian
  pest or weed control at 250 g/ha: 55%
[3]; Lolium multiflorum, pre-emergence, Preemergence, scale 0 to 100 (0 no effect, 100 complete control), read-out: Plant response rating, Ryegrass, Italian
  pest or weed control at 31 g/ha: 0%
[3]; Lolium multiflorum, pre-emergence, Preemergence, 62 g ai/ha, scale 0 to 100 (0 no effect, 100 complete control), read-out: Plant response rating, Ryegrass, Italian
  pest or weed control at 62 g/ha: 0%
[3]; Lolium multiflorum, pre-emergence, Preemergence, scale 0 to 100, 0 no effect, 100 complete control, read-out: Plant response rating, Ryegrass, Italian
  pest or weed control at 125 g/ha: 0%
[3]; [9]
  Ryegrass, Italian plant response rating: 0
[4]; [10]
  Lambsquarters plant response rating (0 to 100 scale): 98
[4]; Chenopodium album, post-emergence, postemergence, scale 0 to 100, 0 is no effect, 100 is complete control, read-out: Plant response rating, Lambsquarters
  pest or weed control at 31 g/ha: 95%
[4]; Chenopodium album, post-emergence, Postemergence, visual rating after 13 to 15 days, scale 0 (no effect) to 100 (complete control)
  pest or weed control at 125 g/ha: 100%
[4]; Chenopodium album, post-emergence, Postemergence, 250 g ai/ha, scale 0 to 100 (0 no effect, 100 complete control), read-out: Plant response rating, Lambsquarters
  pest or weed control at 250 g/ha: 100%
[4]; Chenopodium album, pre-emergence, Preemergence, scale 0 to 100 (0 no effect, 100 complete control), read-out: Plant response rating, Lambsquarters
  pest or weed control at 31 g/ha: 98%
[4]; Chenopodium album, pre-emergence, Preemergence, 62 g ai/ha, scale 0 to 100, 0 no effect, 100 complete control, read-out: Plant response rating, Lambsquarters
  pest or weed control at 62 g/ha: 98%
[4]; Chenopodium album, pre-emergence, Preemergence, scale 0 to 100, 0 no effect, 100 complete control, read-out: Plant response rating, Lambsquarters
  pest or weed control at 125 g/ha: 98%
[4]; [9]
  Lambsquarters plant response rating: 98
[5]; [10]
  Johnsongrass plant response rating (0 to 100 scale): 10
[5]; [9]
  Johnsongrass plant response rating: 90
[5]; Sorghum halepense, post-emergence, postemergence, scale 0 to 100, 0 is no effect, 100 is complete control, read-out: Plant response rating, Johnsongrass
  pest or weed control at 31 g/ha: 5%
[5]; Sorghum halepense, post-emergence, Postemergence, visual rating after 13 to 15 days, scale 0 (no effect) to 100 (complete control)
  pest or weed control at 125 g/ha: 75%
[5]; Sorghum halepense, post-emergence, Postemergence, 250 g ai/ha, scale 0 to 100 (0 no effect, 100 complete control), read-out: Plant response rating, Johnsongrass
  pest or weed control at 250 g/ha: 100%
[5]; Sorghum halepense, pre-emergence, Preemergence, scale 0 to 100 (0 no effect, 100 complete control), read-out: Plant response rating, Johnsongrass
  pest or weed control at 31 g/ha: 10%
[5]; Sorghum halepense, pre-emergence, Preemergence, 62 g ai/ha, scale 0 to 100, 0 no effect, 100 complete control, read-out: Plant response rating, Johnsongrass
  pest or weed control at 62 g/ha: 80%
[5]; Sorghum halepense, pre-emergence, Preemergence, scale 0 to 100, 0 no effect, 100 complete control, read-out: Plant response rating, Johnsongrass
  pest or weed control at 125 g/ha: 90%
[6]; [10]
  Nutsedge, Yellow plant response rating (0 to 100 scale): 80
[6]; Cyperus, post-emergence, postemergence, scale 0 to 100, 0 is no effect, 100 is complete control, read-out: Plant response rating, Nutsedge, Yellow
  pest or weed control at 31 g/ha: 65%
[6]; Cyperus, post-emergence, Postemergence, visual rating after 13 to 15 days, scale 0 (no effect) to 100 (complete control)
  pest or weed control at 125 g/ha: 80%
[6]; Cyperus, post-emergence, Postemergence, 250 g ai/ha, scale 0 to 100 (0 no effect, 100 complete control), read-out: Plant response rating, Nutsedge, Yellow
  pest or weed control at 250 g/ha: 80%
[6]; Cyperus, pre-emergence, Preemergence, scale 0 to 100 (0 no effect, 100 complete control), read-out: Plant response rating, Nutsedge, Yellow
  pest or weed control at 31 g/ha: 10%
[6]; Cyperus, pre-emergence, Preemergence, 62 g ai/ha, scale 0 to 100 (0 no effect, 100 complete control), read-out: Plant response rating, Nutsedge, Yellow
  pest or weed control at 62 g/ha: 75%
[6]; Cyperus, pre-emergence, Preemergence, scale 0 to 100, 0 no effect, 100 complete control, read-out: Plant response rating, Nutsedge, Yellow
  pest or weed control at 125 g/ha: 95%
[6]; [9]
  Nutsedge, Yellow plant response rating: 95
[7]; [10]
  Surinam Grass plant response rating (0 to 100 scale): 90
[7]; [9]
  Surinam Grass plant response rating: 100
[7]; Urochloa decumbens, post-emergence, postemergence, scale 0 to 100, 0 is no effect, 100 is complete control, read-out: Plant response rating, Surinam Grass
  pest or weed control at 31 g/ha: 75%
[7]; Urochloa decumbens, post-emergence, Postemergence, visual rating after 13 to 15 days, scale 0 (no effect) to 100 (complete control)
  pest or weed control at 125 g/ha: 98%
[7]; Urochloa decumbens, post-emergence, Postemergence, 250 g ai/ha, scale 0 to 100 (0 no effect, 100 complete control), read-out: Plant response rating, Surinam Grass
  pest or weed control at 250 g/ha: 100%
[7]; Urochloa decumbens, pre-emergence, Preemergence, scale 0 to 100 (0 no effect, 100 complete control), read-out: Plant response rating, Surinam Grass
  pest or weed control at 31 g/ha: 98%
[7]; Urochloa decumbens, pre-emergence, Preemergence, 62 g ai/ha, scale 0 to 100 (0 no effect, 100 complete control), read-out: Plant response rating, Surinam Grass
  pest or weed control at 62 g/ha: 100%
[7]; Urochloa decumbens, pre-emergence, Preemergence, scale 0 to 100, 0 no effect, 100 complete control, read-out: Plant response rating, Surinam Grass
  pest or weed control at 125 g/ha: 100%
[8]; [10]
  Velvetleaf plant response rating (0 to 100 scale): 100
[8]; Abutilon theophrasti, post-emergence, 360 h, postemergence, scale 0 to 100, 0 is no effect, 100 is complete control, read-out: Plant response rating, Velvetleaf
  pest or weed control at 31 g/ha: 100%
[8]; Abutilon theophrasti, post-emergence, 360 h, Postemergence, visual rating after 13 to 15 days, scale 0 (no effect) to 100 (complete control)
  pest or weed control at 125 g/ha: 100%
[8]; Abutilon theophrasti, post-emergence, 360 h, Postemergence, 250 g ai/ha, scale 0 to 100 (0 no effect, 100 complete control), read-out: Plant response rating, Velvetleaf
  pest or weed control at 250 g/ha: 100%
[8]; Abutilon theophrasti, pre-emergence, 360 h, Preemergence, scale 0 to 100 (0 no effect, 100 complete control), read-out: Plant response rating, Velvetleaf
  pest or weed control at 31 g/ha: 100%
[8]; Abutilon theophrasti, pre-emergence, 360 h, Preemergence, 62 g ai/ha, scale 0 to 100 (0 no effect, 100 complete control), read-out: Plant response rating, Velvetleaf
  pest or weed control at 62 g/ha: 100%
[8]; Abutilon theophrasti, pre-emergence, 360 h, Preemergence, scale 0 to 100, 0 no effect, 100 complete control, read-out: Plant response rating, Velvetleaf
  pest or weed control at 125 g/ha: 100%
[8]; [9]
  Velvetleaf plant response rating: 100
Corn (Zea mays); [10]
  Corn plant response rating (0 to 100 scale): 10
Corn (Zea mays); [9]
  Corn plant response rating: 55
Corn (Zea mays); Zea mays, post-emergence, postemergence, scale 0 to 100, 0 is no effect, 100 is complete control
  Corn plant response rating (crop injury, 0 = no effect, 100 = complete kill) at 31 g/ha: 5%
Corn (Zea mays); Zea mays, post-emergence, Postemergence, visual rating after 13 to 15 days, scale 0 (no effect) to 100 (complete control)
  Corn plant response rating (crop injury, 0 = no effect, 100 = complete kill) at 125 g/ha: 15%
Corn (Zea mays); Zea mays, post-emergence, Postemergence, 250 g ai/ha, scale 0 to 100 (0 no effect, 100 complete control)
  Corn plant response rating (crop injury, 0 = no effect, 100 = complete kill) at 250 g/ha: 65%
Corn (Zea mays); Zea mays, pre-emergence, Preemergence, scale 0 to 100 (0 no effect, 100 complete control)
  Corn plant response rating (crop injury, 0 = no effect, 100 = complete kill) at 31 g/ha: 40%
Corn (Zea mays); Zea mays, pre-emergence, Preemergence, 62 g ai/ha, scale 0 to 100, 0 no effect, 100 complete control
  Corn plant response rating (crop injury, 0 = no effect, 100 = complete kill) at 62 g/ha: 40%
Corn (Zea mays); Zea mays, pre-emergence, Preemergence, scale 0 to 100, 0 no effect, 100 complete control
  Corn plant response rating (crop injury, 0 = no effect, 100 = complete kill) at 125 g/ha: 50%
